Measured values reported in patent publication US20100285990A1, “NEURITE OUTGROWTH AS AN ASSAY FOR MEMORY ENHANCING COMPOUNDS” (priority 2007, published 2010).

How the values were obtained:
mice = experiment: Contextual fear conditioning (freezing behavior) for long term memory; assay type: in vivo, mouse
Procedure: Young-adult (10-12 weeks old) C57BL16 male mice (Taconic, N.Y.) were used for biochemistry and behavioral experiments. Upon arrival, mice were group-housed (5 mice) in standard laboratory cages and maintained on a 12:12 hours light-dark cycle. The experiments were always conducted during the light phase of the cycle. The day before the initiation of the experiment, mice were single housed in individual cages and maintained so till the end of the experiment. With the exception of training and testing times, the mice had ad lib access to food and water.
To assess contextual memory, a standardized contextual fear conditioning task (Bourtchuladze, et al., Cell 79(1):59-68 (1994)) was used. On the training day, the mouse was placed into the conditioning chamber (Med Associates, Inc., VA) for 2 minutes before the onset of the unconditioned stimulus (US), a 0.5 mA foot shock of 2 seconds duration. The US was repeated with a 1 minute inter-trial interval between shocks. After the last training trial, the mice were left in the conditioning chamber for another 30 sec and were then placed back in their home cage. Memory retention was tested one or four days after training. Results were identical for both time points. The mouse was placed into the same training chamber and conditioning was assessed by scoring freezing behavior, as defined by the complete lack of movement. Total testing time lasted 3 minutes. The proceeding of each experiment was filmed. After each experimental subject, the experimental apparatus was thoroughly cleaned with 75% ethanol, water, dried, and ventilated.
Mice were trained with one, two, five or ten trials of contextual conditioning. Four days later contextual memory was tested by scoring freezing behavior. […] Next, mice received weak training (two trials) to induce submaximal memory, or strong training (five trials) to induce maximum memory. Directly after training, the CREB enhancer Rolipram or vehicle was injected into the hippocampus. Contextual memory was tested by scoring freezing behavior four days after training.
For intrahippocampal Rolipram injection or Gpr12 siRNA treatment, mice were anesthetized with 20 mg/kg Avertin and implanted with a 33-gauge guide cannula bilateraly into the dorsal hippocampus (coordinates: A=−1.8 mm, L=+/−1.5 mm to a depth of 1.2 mm) (Franklin and Paxinos, 1997). Five to nine days after recovery from surgery, animals were injected with drug or vehicle control. […]
To assess contextual memory, a standardized contextual fear conditioning task (Bourtchuladze, et al, Cell 79(1):59-68 (1994)) was used. […] The mouse was placed into the same training chamber and conditioning was assessed by scoring freezing behavior, as defined by the complete lack of movement. […]

NS1 cells = experiment: Neurite outgrowth assay in Neuroscreen 1 (NS1) cells; assay type: cell-based; details: for number of branch points: FIG. 5B
Procedure: The effect of CREB enhancers on neurite outgrowth in NS1 cells was assayed. On-target siRNAs (Dharmacon Inc., Lafayette, USA) were used for in vitro testing (neurite outgrowth in NS 1 cells). Neuroscreen 1 (NS1) cells (Cellomics Inc.) were transfected according to the manufactures specification using Dharmafect 3.
Neuroscreen 1 (NS1) cells were cultured on collagen type I coated 75 cm^2 plastic flasks (Biocoat, Becton Dickinson) in a humidified incubator at 37° C. in 5% CO2. Cells were cultured in RPMI complete cell culture medium (Cambrex) supplemented with 10% heat-inactivated horse serum (Invitrogen), 5% heat-inactivated fetal bovine serum (Cellgro), and 2 mM L-glutamine (Cambrex). For expansion, the cells were trypsinized and split at 80% confluence. The cell culture media was changed every 2 to 3 days.
NS1 cells were harvested as if they were being passaged and then counted using a Coulter counter (Becton Dickinson Coulter Z1). Cells were seeded in 96-well collagen I coated plates at a density of 2000 cells per well in volume of 200 μl. RPMI media was supplemented with 200 ng/ml nerve growth factor (NGFβ, Sigma). NS 1 cells were incubated for 72 hours to allow differentiation to a neuronal phenotype. NGFβ was then diluted to 50 ng/ml and the cells were treated with siRNA or compound at the indicated doses, respectively.
Neurite outgrowth assays were performed using the Cellomics Arrayscan II Vti HCS scanner. Cells were stained using the HitKit™ HCS reagent kit (Cellomics) according to the manufactures specifications. The assay is based on immunoflourescence using an antibody that has been validated to specifically label both neurites and neuronal cell bodies. Briefly, cells were fixed in 3.7% formaldehyde and nuclei stained with Hoechst dye. Cells were then washed in neurite outgrowth buffer and neurites stained with Cellomics' proprietary primary antibody for neurite outgrowth high content screening. After 1 hour of incubation with the primary antibody, the cells were washed again and then incubated with fluorescently labeled secondary antibody solution for 1 hour. Antibody-stained 96-well plates were store at 4° C. in the dark until scanning. Plates were scanned using Cellomics ArrayScan II Vti HCS scanner. The neurite outgrowth assay uses two channels to carry out the scan. Channel 1 detects the Hoechst Dye and is used by the software to identify cells and for automated focusing. Channel 2 detects the FITC fluorescence of the secondary antibody and is used by the software to calculate all data generated in reference to neurites.

[1] = system: mouse hippocampal neurons; experiment: Neurite outgrowth assay in mouse hippocampal neurons; assay type: cell-based
Procedure: Mouse hippocampal neurons were cultured for three days and then treated with HT-2175 or Rolipram for 24 hours. […] MEAN+/−SEM of eight experimental replicate wells (each measuring neurite length of at least 100 neurons) is shown. […] Mice were treated with HT-2175 or vehicle and then trained in contextual conditioning.
Cryo-preserved NS 1 neurons were purchased from the University of Ottawa. Neurons were cultured on poly-D-lysine coated 96 well plates in serum free Neurobasal medium supplemented with 2% B27, 500 μM L-glutamine, and 1 mM pyruvate. Plating density was 20,000 neurons per well. For neurite outgrowth assays, neurons were cultured for 2-3 days and then treated for 24 hours with Rolipram, HT-2175, or HT-2157, respectively.

CREB pathway = experiment: CRE-luciferase reporter assay of CREB activation in Neuro2A cells; assay type: cell-based; details: p<0.001
Description: CREB activity assays were constructed. Neuro2A cells were transfected with a CREB expressing or control vectors using standard molecular biology techniques. CRE-luciferase activity was monitored in the presence or absence of Forskolin ([…]). CREB over-expression led to an increase in the activation of the CRE-reporter construct (n=3 per group, * indicates p<0.05). CRE-luciferase reporter thus measures activation of the CREB pathway. In FIG. 1B, the effect of Rolipram on CREB-activation is shown. Neuro2A cells were treated with the PDE4 inhibitor Rolipram and CREB activation monitored via CRE-liciferase activation.
The effect of Rolipram on CREB-activation was assayed in the presence of 0.5 μM Forskolin. Neuro2A cells were treated with the PDE4 inhibitor Rolipram and CREB activation monitored via CRE-liciferase activation in the presence of 0.5 μM Forskolin.

[2] = siRNA treatment 48 hours, compared to vehicle alone

For O=C1C(=Nc2cccc(C(F)(F)F)c2)c2ccccc2N1c1ccccc1 [HT-2157], the contextual memory (mice; contextual fear conditioning with two trials, FIG. 6D) was “dose dependently facilitates contextual memory”, the “total neurite length per cell” value (NS1 cells; FIG. 6A) was “facilitates neurite outgrowth” and the “number of branch points per dendrite” value (NS1 cells; FIG. 6B) was “facilitates neurite outgrowth”. For the same compound, the “number of branch points” value ([1]; mouse hippocampal neurons, FIG. 6C) was “dose-dependently facilitates neurite outgrowth”.

For COc1ccc(C2CNC(=O)C2)cc1OC1CCCC1 (centres unmarked) [Rolipram], the “contextual memory (freezing behavior)” value (mice; strong training (five trials), injected into the hippocampus directly after training, tested four days after training) was “has no effect on maximal memory”, the “contextual memory (freezing behavior)” value (mice; weak training (two trials), injected into the hippocampus directly after training, tested four days after training) was “dose-dependently facilitates submaximal contextual memory” and the neurite branch points (NS1 cells; increasing doses in the presence of 5 μM Forskolin) was “dose dependently increase neurite outgrowth”. The neurite length (NS1 cells; increasing doses in the presence of 5 μM Forskolin, FIG. 3B) was “dose dependently increase neurite outgrowth”, the “CREB activation monitored via CRE-luciferase activation” value (CREB pathway; FIG. 1B, n=8 per group) was “activates CREB-dependent transcription” and the “CREB activation monitored via CRE-luciferase activation” value (CREB pathway; in the presence of 0.5 μM Forskolin) was “activates CREB-dependent transcription”. The “branch points per neurite” value ([1]; neurons cultured three days, treated 24 hours, FIG. 4A) was “facilitate neurite outgrowth”.

In the case of “Gpr12 siRNA: siRNA against Gpr12; sense GAGGCACGCCCAUC AGAUAUU (SEQ ID NO: 1), anti-sense UAUCUGAUGGGCGUGCCUCUU (SEQ ID NO: 2) (sense GAGGCACGCCCAUCAGAUAUU; chemically modified siSTABLE siRNA, pattern not given here)”, the “contextual memory (freezing behavior)” value (mice; siRNA injected repeatedly into hippocampus, weak training (two trials), tested 24 hours later, FIG. 5C) is reported as “facilitates contextual memory”, the “number of branch points” value (NS1 cells; siRNA treatment 48 hours) is reported as “significantly enhanced neurite outgrowth” and the neurite length (NS1 cells; [2]) is reported as “significantly enhanced neurite outgrowth”.

“non-targeting control siRNA: 21mer non-targeting siRNA used as control; SEQ ID NO: 3 and 4 (chain 1 UAGCGACUAAACACAUCAAUU; chain 2 UUGAUGUGUUUAGUCGCUAUU; chemically modified siSTABLE siRNA, pattern not given here)” was tested, and the “number of branch points” value (NS1 cells; siRNA treatment 48 hours) was “had no effect on branch points”, the neurite length (NS1 cells; [2]) was “had no effect on neurite outgrowth” and the neurite length (NS1 cells; siRNA treatment 48 hours, compared to vehicle alone, listed as Non-targeting control siRNA) was “had no effect on neurite length”.
